Assay results reported in US10947289B2, “Glyco-modified atrial natriuretic peptide” (priority 2013, dated 2021).

Molecular target: T1, human GC-A (Homo sapiens, UniProt P16066)
T1 construct: expressed in transfected cells; host or cells: CHO cells
T1 sequence (P16066 33-1061): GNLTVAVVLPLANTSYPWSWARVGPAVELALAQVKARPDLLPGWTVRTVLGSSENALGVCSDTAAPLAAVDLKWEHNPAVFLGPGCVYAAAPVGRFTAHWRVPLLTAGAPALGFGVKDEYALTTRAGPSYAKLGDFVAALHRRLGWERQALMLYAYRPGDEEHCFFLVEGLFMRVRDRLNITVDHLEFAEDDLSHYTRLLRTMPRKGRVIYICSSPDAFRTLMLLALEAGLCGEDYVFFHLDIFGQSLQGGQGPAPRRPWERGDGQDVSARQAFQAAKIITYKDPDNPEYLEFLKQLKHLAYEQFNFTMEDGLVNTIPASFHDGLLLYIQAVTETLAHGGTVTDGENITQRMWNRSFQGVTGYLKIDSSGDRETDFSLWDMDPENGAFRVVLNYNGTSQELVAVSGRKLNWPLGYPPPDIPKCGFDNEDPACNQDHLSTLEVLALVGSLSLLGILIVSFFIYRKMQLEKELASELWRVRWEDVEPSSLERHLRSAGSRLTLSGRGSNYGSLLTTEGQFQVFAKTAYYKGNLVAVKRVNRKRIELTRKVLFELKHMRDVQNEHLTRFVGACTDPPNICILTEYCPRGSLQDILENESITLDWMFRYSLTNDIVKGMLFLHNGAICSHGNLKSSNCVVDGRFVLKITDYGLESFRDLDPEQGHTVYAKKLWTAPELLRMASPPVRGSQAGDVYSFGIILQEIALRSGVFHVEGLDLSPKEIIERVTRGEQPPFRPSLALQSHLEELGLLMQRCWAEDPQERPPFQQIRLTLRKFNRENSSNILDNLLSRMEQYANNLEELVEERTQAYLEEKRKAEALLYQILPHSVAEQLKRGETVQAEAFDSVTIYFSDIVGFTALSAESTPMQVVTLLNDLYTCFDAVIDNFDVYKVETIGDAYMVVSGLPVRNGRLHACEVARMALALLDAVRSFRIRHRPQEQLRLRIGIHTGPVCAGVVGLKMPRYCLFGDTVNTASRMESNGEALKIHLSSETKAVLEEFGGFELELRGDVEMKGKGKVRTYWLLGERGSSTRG
Experiment: cGMP elevating activity in CHO/human GC-A cells (Test Example 1)
Type: cell-based
Procedure: The cGMP elevating activity of each modified peptide prepared in Example 2 was measured by the following method:
CHO/human GC-A cells, which are CHO cells constitutively expressing human GC-A, were suspended at 2×10^5 cells/ml in α-MEM, 10% FBS, and 1% penicillin-streptomycin, inoculated at 20 μl/well (4×10^3 cells/well) onto a 384-well plate (Corning, 3826), and cultured overnight in a CO2 incubator. On the next day, the medium was removed from this plate, and then, 1.6 mM IBMX/KRB buffer was added thereto at 10 μl/well. The mixture was stirred on a plate shaker and then incubated at room temperature for 10 minutes. […] The mixture was stirred on a plate shaker and then incubated for 15 minutes in a CO2 incubator. Thereafter, a lysis buffer (50 mM phosphate buffer, pH 7.0, and 1% Triton X-100) was added thereto at 5 μl/well. The cells were lysed by stirring for 10 minutes on a plate shaker. Subsequently, the cGMP levels in the cell lysates were measured by use of a cGMP kit (manufactured by Cisbio Bioassays). Specifically, to a 384-well plate (Greiner, 784076), 5 μl/well of a diluent attached to the kit, 5 μl/well of the cell lysate, 5 μl/well of cGMP-d2, and 5 μl/well of anti cGMP-Cryptate were added. The mixture was stirred on a plate shaker and then incubated overnight at 4° C. in the dark, followed by the measurement of homogeneous time-resolved fluorescence using RubyStar (manufactured by BMG LABTECH JAPAN Ltd.). The activity value (T/C) of the test substance at each concentration was calculated when the activity value of a well supplemented with only a solvent was defined as 0 and the activity value of a well supplemented with 1 nM ANP was defined as 1.

Row | SMILES | EC50 [nM]
1 | CC[C@H](C)[C@@H]1NC(=O)[C@H](CCCNC(=N)N)NC(=O)[C@H](CC(=O)O)NC(=O)[C@H](CCSC)NC(=O)[C@H](CCCNC(=N)N)NC(=O)CNC(=O)CNC(=O)[C@H](Cc2ccccc2)NC(=O)[C@@H](NC(=O)[C@H](CO)NC(=O)[C@H](CO)NC(=O)[C@H](CCCNC(=N)N)NC(=O)[C@H](CCCNC(=N)N)NC(=O)[C@H](CC(C)C)NC(=O)[C@H](CO)NC(=O)CNC(=O)[C@H](CO)NC(=O)CNC(=O)[C@H](CO)NC(=O)CNC(=O)[C@H](CO)NC(=O)[C@H](CC(=O)N[C@@H]2O[C@H](CO)[C@@H](O[C@@H]3O[C@H](CO)[C@@H](O[C@@H]4O[C@H](CO[C@H]5O[C@H](CO)[C@@H](O)[C@H](O)[C@@H]5O[C@@H]5O[C@H](CO)[C@@H](O[C@@H]6O[C@H](CO[C@]7(C(=O)O)C[C@H](O)[C@@H](NC(C)=O)[C@H]([C@H](O)[C@H](O)CO)O7)[C@H](O)[C@H](O)[C@H]6O)[C@H](O)[C@H]5NC(C)=O)[C@@H](O)[C@H](O[C@H]5O[C@H](CO)[C@@H](O)[C@H](O)[C@@H]5O[C@@H]5O[C@H](CO)[C@@H](O[C@@H]6O[C@H](CO[C@]7(C(=O)O)C[C@H](O)[C@@H](NC(C)=O)[C@H]([C@H](O)[C@H](O)CO)O7)[C@H](O)[C@H](O)[C@H]6O)[C@H](O)[C@H]5NC(C)=O)[C@@H]4O)[C@H](O)[C@H]3NC(C)=O)[C@H](O)[C@H]2NC(C)=O)NC(=O)CO[C@@H]2O[C@H](CO)[C@@H](O[C@@H]3O[C@H](CO)[C@@H](O[C@@H]4O[C@H](CO[C@H]5O[C@H](CO)[C@@H](O)[C@H](O)[C@@H]5O[C@@H]5O[C@H](CO)[C@@H](O[C@@H]6O[C@H](CO[C@]7(C(=O)O)C[C@H](O)[C@@H](NC(C)=O)[C@H]([C@H](O)[C@H](O)CO)O7)[C@H](O)[C@H](O)[C@H]6O)[C@H](O)[C@H]5NC(C)=O)[C@@H](O)[C@H](O[C@H]5O[C@H](CO)[C@@H](O)[C@H](O)[C@@H]5O[C@@H]5O[C@H](CO)[C@@H](O[C@@H]6O[C@H](CO[C@]7(C(=O)O)C[C@H](O)[C@@H](NC(C)=O)[C@H]([C@H](O)[C@H](O)CO)O7)[C@H](O)[C@H](O)[C@H]6O)[C@H](O)[C@H]5NC(C)=O)[C@@H]4O)[C@H](O)[C@H]3NC(C)=O)[C@H](O)[C@H]2NC(C)=O)CSSC[C@@H](C(=O)N[C@@H](CC(N)=O)C(=O)N[C@@H](CO)C(=O)N[C@@H](Cc2ccccc2)C(=O)N[C@@H](CCCNC(=N)N)C(=O)N[C@@H](Cc2ccc(O)cc2)C(=O)O)NC(=O)CNC(=O)[C@H](CC(C)C)NC(=O)CNC(=O)[C@H](CO)NC(=O)[C@H](CCC(N)=O)NC(=O)[C@H](C)NC(=O)CNC1=O [Compound 2-36, SG-(SG-)Asn-(Ser-Gly)3-hANP(1-28)] | 0.39
2 | CC[C@H](C)[C@@H]1NC(=O)[C@H](CCCNC(=N)N)NC(=O)[C@H](CC(=O)O)NC(=O)[C@H](CCSC)NC(=O)[C@H](CCCNC(=N)N)NC(=O)CNC(=O)CNC(=O)[C@H](Cc2ccccc2)NC(=O)[C@@H](NC(=O)[C@H](CO)NC(=O)[C@H](CO)NC(=O)[C@H](CCCNC(=N)N)NC(=O)[C@H](CCCNC(=N)N)NC(=O)[C@H](CC(C)C)NC(=O)[C@H](CO)NC(=O)CCOCCOCCOCCOCCNC(=O)CCSC2CC(=O)N(CCC(=O)N[C@@H](CCC(=O)NCCO[C@@H]3O[C@H](CO)[C@@H](O[C@@H]4O[C@H](CO)[C@@H](O[C@@H]5O[C@H](CO[C@H]6O[C@H](CO)[C@@H](O)[C@H](O)[C@@H]6O[C@@H]6O[C@H](CO)[C@@H](O[C@@H]7O[C@H](CO[C@]8(C(=O)O)C[C@H](O)[C@@H](NC(C)=O)[C@H]([C@H](O)[C@H](O)CO)O8)[C@H](O)[C@H](O)[C@H]7O)[C@H](O)[C@H]6NC(C)=O)[C@@H](O)[C@H](O[C@H]6O[C@H](CO)[C@@H](O)[C@H](O)[C@@H]6O[C@@H]6O[C@H](CO)[C@@H](O[C@@H]7O[C@H](CO[C@]8(C(=O)O)C[C@H](O)[C@@H](NC(C)=O)[C@H]([C@H](O)[C@H](O)CO)O8)[C@H](O)[C@H](O)[C@H]7O)[C@H](O)[C@H]6NC(C)=O)[C@@H]5O)[C@H](O)[C@H]4NC(C)=O)[C@H](O)[C@H]3NC(C)=O)C(=O)NCCO[C@@H]3O[C@H](CO)[C@@H](O[C@@H]4O[C@H](CO)[C@@H](O[C@@H]5O[C@H](CO[C@H]6O[C@H](CO)[C@@H](O)[C@H](O)[C@@H]6O[C@@H]6O[C@H](CO)[C@@H](O[C@@H]7O[C@H](CO[C@]8(C(=O)O)C[C@H](O)[C@@H](NC(C)=O)[C@H]([C@H](O)[C@H](O)CO)O8)[C@H](O)[C@H](O)[C@H]7O)[C@H](O)[C@H]6NC(C)=O)[C@@H](O)[C@H](O[C@H]6O[C@H](CO)[C@@H](O)[C@H](O)[C@@H]6O[C@@H]6O[C@H](CO)[C@@H](O[C@@H]7O[C@H](CO[C@]8(C(=O)O)C[C@H](O)[C@@H](NC(C)=O)[C@H]([C@H](O)[C@H](O)CO)O8)[C@H](O)[C@H](O)[C@H]7O)[C@H](O)[C@H]6NC(C)=O)[C@@H]5O)[C@H](O)[C@H]4NC(C)=O)[C@H](O)[C@H]3NC(C)=O)C2=O)CSSC[C@@H](C(=O)N[C@@H](CC(N)=O)C(=O)N[C@@H](CO)C(=O)N[C@@H](Cc2ccccc2)C(=O)N[C@@H](CCCNC(=N)N)C(=O)N[C@@H](Cc2ccc(O)cc2)C(=O)O)NC(=O)CNC(=O)[C@H](CC(C)C)NC(=O)CNC(=O)[C@H](CO)NC(=O)[C@H](CCC(N)=O)NC(=O)[C@H](C)NC(=O)CNC1=O (stereo partly drawn) [Compound 2-31, SG-(SG-)Gln*-Mal-PEG(3)-hANP(1-28)] | 0.31
3 | CC[C@H](C)[C@@H]1NC(=O)[C@H](CCCNC(=N)N)NC(=O)[C@H](CC(=O)O)NC(=O)[C@H](CCSC)NC(=O)[C@H](CCCNC(=N)N)NC(=O)CNC(=O)CNC(=O)[C@H](Cc2ccccc2)NC(=O)[C@@H](NC(=O)[C@H](CO)NC(=O)[C@H](CO)NC(=O)[C@H](CCCNC(=N)N)NC(=O)[C@H](CCCNC(=N)N)NC(=O)[C@H](CC(C)C)NC(=O)[C@@H](N)CC(=O)N[C@@H]2O[C@H](CO)[C@@H](O[C@@H]3O[C@H](CO)[C@@H](O[C@@H]4O[C@H](CO[C@H]5O[C@H](CO)[C@@H](O)[C@H](O)[C@@H]5O[C@@H]5O[C@H](CO)[C@@H](O[C@@H]6O[C@H](CO[C@]7(C(=O)O)C[C@H](O)[C@@H](NC(C)=O)[C@H]([C@H](O)[C@H](O)CO)O7)[C@H](O)[C@H](O)[C@H]6O)[C@H](O)[C@H]5NC(C)=O)[C@@H](O)[C@H](O[C@H]5O[C@H](CO)[C@@H](O)[C@H](O)[C@@H]5O[C@@H]5O[C@H](CO)[C@@H](O[C@@H]6O[C@H](CO[C@]7(C(=O)O)C[C@H](O)[C@@H](NC(C)=O)[C@H]([C@H](O)[C@H](O)CO)O7)[C@H](O)[C@H](O)[C@H]6O)[C@H](O)[C@H]5NC(C)=O)[C@@H]4O)[C@H](O)[C@H]3NC(C)=O)[C@H](O)[C@H]2NC(C)=O)CSSC[C@@H](C(=O)N[C@@H](CC(N)=O)C(=O)N[C@@H](CO)C(=O)N[C@@H](Cc2ccccc2)C(=O)N[C@@H](CCCNC(=N)N)C(=O)N[C@@H](Cc2ccc(O)cc2)C(=O)O)NC(=O)CNC(=O)[C@H](CC(C)C)NC(=O)CNC(=O)[C@H](CO)NC(=O)[C@H](CCC(N)=O)NC(=O)[C@H](C)NC(=O)CNC1=O [Compound 2-4, (SG-)Asn-hANP(2-28)] | 0.08
